Each block holds one compound with its values, some of them ahead of it.
Columns and labels:
[1] = tested on: naive Th cells; experiment: Induction from naive T cells to Tregs by CDK8/19 inhibitory drugs (CD25+ Foxp3+ cells, EC150); type: cell-based, mouse; details: concentration giving 150% CD25+ Foxp3+ cells versus 0.1% DMSO, 44 hours, geometric average of three trials
Protocol: The naive T cells were generated by the following method. […] Naive Th cells were prepared from the cell suspension using Naive CD4^+ T cell Isolation Kit, mouse (manufactured by Miltenyi Biotec). […] Further, Anti-Biotin MicroBeads and CD44 MicroBeads were added, followed by incubation at 4° C. for 10 minutes and then a centrifugation operation (300xg, 10 minutes). After the removal of the supernatant, the cells were resuspended in MEM and applied to an LS column (manufactured by Miltenyi Biotech). The cells contained in the flow-through liquid were used in the subsequent experiments. The prepared naive Th cells (2×10^5 cells) were stimulated with an anti-CD3/CD28 antibody (Gibco Dynabeads Mouse T-Activator CD3/CD28; manufactured by Thermo Fisher Scientific) in the presence of various CDK8/19 inhibitory drugs (usage amount: from 1 nM to 10,000 nM [[μM]]) at 5% CO2 at 37° C. […] The stained cells were measured using Canto II (manufactured by BD) by a flow cytometry method, and a proportion of CD25^+ Foxp3^+ cells in CD4^+ viable cells was analyzed using FlowJo (manufactured by FlowJo).

[2] = tested on: mouse actively-sensitized antibody-induced nasal allergy model; experiment: Actively-sensitized antibody-induced nasal allergy model, nasal rubbing; type: in vivo
Protocol: The mouse actively-sensitized antibody-induced nasal allergy model was generated by the following method. Seven-week-old BALB/c mice (manufactured by SLC, male) were initially sensitized by intraperitoneal administration of 200 μL of a mixed liquid of OVA (manufactured by Wako Pure Chemical Industries, Ltd.) (0.5 mg/mL) (100 μg/mouse), 5 mg/mL of aluminum hydroxide (ALUM; manufactured by Wako Pure Chemical Industries, Ltd.), and 1.5 μg/mL of pertussis toxin (manufactured by Wako Pure Chemical Industries, Ltd.). Next, 5 days after the initial sensitization, as additional sensitization, OVA (50 μg/mouse) was administered into the dorsal skin of the mice to perform systemic sensitization. After that, OVA (100 μg/mouse) was administered to the mice as nasal drops at a frequency of once a day as local sensitization for 8 days from day 18 after the initial sensitization to elicit a nasal allergy symptom due to active sensitization.
A 0.5% (w/v) methylcellulose solution serving as a vehicle was used for a vehicle control group, and dexamethasone (manufactured by Tokyo Chemical Industry Co., Ltd.) was used for a positive control.

[3] = tested on: OVA-induced asthma model; experiment: OVA-induced asthma model, airway resistance after methacholine; type: in vivo, mouse; details: 0.5 mg/kg oral once a day, 34 days, 25 mg/mL methacholine
[4] = tested on: Th1-type asthma model; experiment: Th1-type asthma model, airway resistance after methacholine; type: in vivo, mouse; details: 0.5 mg/kg oral once a day, 17 days, 25 mg/mL methacholine
[5] = molecular target: CDK8 (Homo sapiens, UniProt P49336); experiment: CDK8 kinase activity measurement (QSS Assist CDK8/CycC_ELISA kit)
[6] = molecular target: CDK19 (Homo sapiens, UniProt Q9BWU1); experiment: CDK19 kinase activity measurement (QSS Assist CDC2L6/CycC_ELISA kit)
[7] = tested on: CD4+ CD25− Foxp3− CD62L+ CD44− naive T cells; experiment: In vitro Foxp3 induction in naive T cells (Foxp3-GFP, flow cytometry); type: cell-based, mouse; details: hTGF-β1 2 ng/mL alone, anti-CD3/CD28, 72 hours
Protocol: The eFox mice were generated in accordance with a method described in Science. […] The prepared total lymphocytic cells were stained with an anti-CD4 antibody (RM-4.5; manufactured by BD), an anti-CD62L antibody (MEL-14; manufactured by BD), and an anti-CD44 antibody (IM7; manufactured by BD), and CD4^+ CD25^− Foxp3^− CD62L^+ CD44^− naive T cells were prepared using FACSAria™ II (manufactured by BD).
The cells after the treatment were stained with an anti-CD4 antibody (manufactured by BD), and a proportion of Foxp3-GFP-positive cells was analyzed by a flow cytometry method.

[8] = tested on: human naive CD4+ T cells (CD4+ CD25− CD45RA+ Foxp3−); experiment: Foxp3 induction in human naive CD4+ T cells with anti-TGF-β antibody or TGF-β; type: cell-based; details: hTGF-β1 2 ng/mL alone, hIL-2, 72 hours
Protocol: Human naive CD4^+ T cells (CD4^+ CD25^− CD45RA^+ Foxp3^−) were prepared from human peripheral blood mononuclear cells (manufactured by Wako Pure Chemical Industries, Ltd.) in the same manner as in Example 17. As shown in the following items (i) to (iv), the prepared naive T cells (2×10^5 cells) were stimulated using 5 μL of an anti-CD3/CD28 antibody (Gibco Dynabeads Human T-Activator CD3/CD28; manufactured by Thermo Fisher Scientific) in the presence/absence of 2 ng/mL of hTGF-β1 (manufactured by R&D) or 10 μg/mL of an anti-TGF-β antibody (manufactured by R&D), hIL-2 (manufactured by Shionogi & Co., Ltd.) (50 U/ml), and 100 nM of Compound 1 Salt, and treated under a 5% CO2 atmosphere at 37° C. for 72 hours.
(§1) The cells after the treatment were stained with an anti-CD4 antibody (manufactured by BD) and an anti-Foxp3 antibody (manufactured by eBioscience), and a proportion of Foxp3-positive cells was analyzed by a flow cytometry method.

[9] = tested on: human effector memory CD4+ T cells (CD4+ CD25− CD45RA− Foxp3−); experiment: Foxp3 induction in human effector memory CD4+ T cells; type: cell-based; details: TGF-β 2 ng/mL alone, hIL-2, 72 hours
Protocol: Human peripheral blood mononuclear cells (manufactured by Wako Pure Chemical Industries, Ltd.) were stained using an anti-CD4 antibody (RPA-T4; manufactured by BD), an anti-CD25 antibody (M-A251; manufactured by BD), and an anti-CD45RA antibody (HI100; manufactured by BD), and human effector memory CD4^+ T cells (CD4^+ CD25^− CD45RA^− Foxp3^−) were prepared using FACSAria™ II (manufactured by BD).
as §1

Chain of CDK8 (P49336 whole entry): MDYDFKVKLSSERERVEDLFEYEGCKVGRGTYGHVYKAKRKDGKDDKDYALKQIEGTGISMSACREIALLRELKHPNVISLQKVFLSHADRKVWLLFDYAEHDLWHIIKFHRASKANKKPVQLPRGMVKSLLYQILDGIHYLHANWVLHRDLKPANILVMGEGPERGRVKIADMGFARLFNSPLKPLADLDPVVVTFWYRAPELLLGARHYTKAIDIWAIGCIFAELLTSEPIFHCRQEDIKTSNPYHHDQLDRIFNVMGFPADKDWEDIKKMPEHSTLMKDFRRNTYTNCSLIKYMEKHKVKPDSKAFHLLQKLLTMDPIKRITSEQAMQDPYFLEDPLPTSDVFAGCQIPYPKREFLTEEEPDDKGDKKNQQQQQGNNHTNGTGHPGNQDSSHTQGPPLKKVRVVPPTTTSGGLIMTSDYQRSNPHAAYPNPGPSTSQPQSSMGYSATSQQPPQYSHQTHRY
Chain of CDK8 (P24863 whole entry partner): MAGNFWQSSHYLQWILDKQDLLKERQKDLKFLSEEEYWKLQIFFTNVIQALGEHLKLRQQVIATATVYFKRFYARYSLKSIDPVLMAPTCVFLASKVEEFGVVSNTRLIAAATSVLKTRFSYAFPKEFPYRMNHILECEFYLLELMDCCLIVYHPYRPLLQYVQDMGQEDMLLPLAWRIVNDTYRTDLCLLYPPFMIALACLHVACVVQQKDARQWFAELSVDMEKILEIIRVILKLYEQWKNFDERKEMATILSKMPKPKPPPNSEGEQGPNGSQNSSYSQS
Chain of CDK19 (Q9BWU1 whole entry): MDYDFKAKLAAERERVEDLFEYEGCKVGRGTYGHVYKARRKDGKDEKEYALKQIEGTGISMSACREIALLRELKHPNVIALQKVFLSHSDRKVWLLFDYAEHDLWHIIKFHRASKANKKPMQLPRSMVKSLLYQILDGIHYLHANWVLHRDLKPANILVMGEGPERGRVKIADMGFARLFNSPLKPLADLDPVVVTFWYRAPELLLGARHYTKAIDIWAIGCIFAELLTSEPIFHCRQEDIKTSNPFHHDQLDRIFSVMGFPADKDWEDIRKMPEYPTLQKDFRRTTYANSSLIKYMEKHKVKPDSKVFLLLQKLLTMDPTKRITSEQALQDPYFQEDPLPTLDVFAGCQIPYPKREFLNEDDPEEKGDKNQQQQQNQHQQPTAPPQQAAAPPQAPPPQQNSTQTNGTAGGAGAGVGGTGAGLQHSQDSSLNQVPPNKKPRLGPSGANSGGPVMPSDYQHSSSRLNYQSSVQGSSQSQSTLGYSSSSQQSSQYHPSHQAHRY
Chain of CDK19 (P24863 whole entry partner): as the sequence (P24863 whole entry partner) above

Compound: NC(=O)[C@H](Nc1cncc(-c2ccc(O)c(Cl)c2)c1)c1ccccc1 [(R)-2-[5-(3-Chloro-4-hydroxyphenyl)-pyridin-3-ylamino]-2-phenylacetamide]
- EC150 [1]: 2.8 nM

- IC50 [5]: 0.7 nM
- IC50 [6]: 1.9 nM
Compound: COc1ccc(N2CCC(n3c(-c4nccnc4N)nc4c(C)nccc43)CC2)cc1 [Compound 2, 3-{1-[1-(4-methoxyphenyl)piperidin-4-yl]-4-methyl-1H-imidazo[4,5-c]pyridin-2-yl}pyrazin-2-amine]
- number of times of nasal rubbing ([2]; 1.0 mg/kg oral daily): significantly suppressed
- number of times of nasal rubbing ([2]; 3.0 mg/kg oral daily): significantly suppressed
- airway reactivity (sRaw) [3]: suppressed an increase in airway reactivity
- airway reactivity (sRaw) [4]: suppressed an increase in airway reactivity
- EC150 [1]: 10.2 nM

Compound: N#Cc1ccc2ncnc(NCCc3ccccc3)c2c1 [Senexin A]
- EC150 [1]: 192.2 nM

Compound: TGF-β: hTGF-β1 (manufactured by R&D), used as control and in combination
- proportion of Foxp3-GFP-positive cells [7]: 44.3%
- proportion of Foxp3-positive cells [8]: 26.9%
- proportion of Foxp3-positive cells [9]: 28.5%
